From US20080261870A1, “Use of the Pro-Peptide Domain of Lysyl Oxidase as a Therapeutic Agent” (priority 2004, published 2008)

Columns and labels:
RS485 cells [1] = experiment: Growth curves of RS485 cells (crystal violet staining); type: cell-based; conditions: for decrease of growth rate: linear regression of log of absorbance vs time
Text: Effect of suramin on RS485 cell phenotype. Suramin is a polysulfonated naphthylurea, initially used in the treatment of trypanosomiasis and onchocerciasis (Sullivan et al., 1997). Its anti-cancer activity was later identified, and suramin has been introduced into clinical trials for various forms of cancer (La Rocca et al., 1990(a); La Rocca et al., 1990(b); Song et al., 2001; Small et al., 2000; Garcia-Schurmann et al., 1999). Suramin interrupts autocrine growth factor pathways by inhibiting the binding of growth factors to their receptors (Sullivan et al., 1997; Zanghi et al., 2000; Fukumoto et al., 2000; Mietz et al., 1998; Coffey et al., 1987). Treatment of c-Ha-ras-transformed NIH 3T3 cells (RS485 cell line) with suramin leads to the induction of lysyl oxidase (Palamakumbura et al., 2003). Here we investigated the effects of suramin on the rate of growth and morphology of RS485 cells, as an initial measure of cell phenotype. Cells were plated in 6-well plates and cultured for 24 hours and then grown in the continuous presence of 0, 100, 125, or 150 μM suramin. As control, the growth of phenotypically normal NIH 3T3 cells in the absence of suramin was analyzed at the same time. Cell growth was determined by daily crystal violet staining of replicate wells. RS485 cells grew more rapidly than NIH 3T3 cells, as expected (Chang et al., 1982). […] The growth rate of RS485 cells treated with 150 μM suramin was similar to that of NIH 3T3 cells.
BAPN-mediated inhibition of lysyl oxidase enzyme activity fails to prevent phenotypic reversion induced by suramin. It has generally been assumed, although never directly tested, that lysyl oxidase dependent phenotypic reversion and tumor suppressor activity depends on its enzyme activity. To directly test the role of lysyl oxidase enzyme activity, we measured the effects of the lysyl oxidase inhibitor, BAPN (Tang et al., 1983), on the phenotypic changes in RS485 cells following treatment with 150 μM suramin. We have previously shown that suramin induces lysyl oxidase activity by about 2.5-fold (Palamakumbura et al., 2003). RS485 cell growth was assessed in the absence or presence of either 150 μM suramin or 400 μM BAPN, or a combination of both 150 μM suramin and 400 μM BAPN.
(§1) Growth curves. To study cell growth rates, cells were plated in 6-well plates at a density of 35,000 cells/well and were grown in complete medium containing 10% FBS, as described above. Additions of suramin or β-aminopropionitrile (BAPN), when appropriate, were initiated 24 hours after plating. Media were changed every three days in the continuous presence of suramin or BAPN, as indicated for each experimental design in the Results section. Cell density was determined in triplicate every day by crystal violet staining, as described (Kueng et al., 1989; Gillies et al., 1986). Cells were fixed with 10% formalin in PBS, washed with PBS, and then stained for 30 minutes with 0.1% crystal violet at room temperature with shaking. Unbound dye was then removed by washing with water until washes were colorless. Bound dye was then eluted with 10% acetic acid, and quantitated by measuring the absorbance at 590 nm. For quantitative analyses of growth rates, the logarithmic value of absorbance vs time was plotted±standard deviation and the rates were calculated by linear regression analyses. In addition, data were plotted as total absorbance +/−SE vs time. Experiments were performed three times each with consistent findings.

PR4 cells = experiment: Growth curves and morphology of PR4 cells; type: cell-based; conditions: 400 μM BAPN
Experimental: (§2) If lysyl oxidase enzyme activity were required for the normal phenotype of PR4 cells, then BAPN would cause re-transformation. Thus, growth curves were generated for PR4 cells in the presence of 0 or 400 μM BAPN.
as §1, with “Experiments were performed three times each with consistent findings.” left out

lysyl oxidase = target: T1, lysyl oxidase (Mus musculus, UniProt P28301); experiment: Lysyl oxidase enzyme activity in PR4 cell culture media (tritiated tropoelastin substrate); type: biochemical
T1 construct: endogenous in cells; conditioned serum-free medium
T1 sequence (P28301 163-411): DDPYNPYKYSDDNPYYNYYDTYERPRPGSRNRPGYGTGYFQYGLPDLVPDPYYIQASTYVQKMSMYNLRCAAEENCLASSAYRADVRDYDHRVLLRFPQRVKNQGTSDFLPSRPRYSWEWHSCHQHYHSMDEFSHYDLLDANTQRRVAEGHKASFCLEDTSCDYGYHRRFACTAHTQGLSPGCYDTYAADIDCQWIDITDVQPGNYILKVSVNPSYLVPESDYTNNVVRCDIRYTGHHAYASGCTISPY
Experimental: as §2
Lysyl oxidase enzyme activity. PR4 cells were plated in 100 mm cell culture plates and then grown and re-fed every two days as described above in the constant presence of 0, 200 and 400 μM BAPN for seven days until visually confluent. Cells were then re-fed with serum-free medium supplemented with 0.1% bovine serum albumin still in the constant presence or absence of BAPN. After 24 hours conditioned 0.3 ml aliquots of media samples were assayed in quadruplicate using a tritiated recombinant human tropoelastin as substrate as previously described (Bedell-Hogan et al., 1993). Incubations were performed at […] for 90 minutes (Hong et al., 1999) and data were expressed as total cpm released +/−SE per culture.

[2] = test system: ras-transformed fibroblasts; experiment: Growth in soft agar of ras-transformed fibroblasts with ectopic lysyl oxidase expression, with BAPN; type: cell-based
Text: It has now been determined that the ability of lysyl oxidase to revert the phenotype of ras-transformed fibroblasts depends substantially on the pro-peptide domain and not on lysyl oxidase enzyme activity. Since diminished lysyl oxidase expression in some way contributes to the transformed phenotype, it had generally been assumed that lysyl oxidase enzyme activity is related to the tumor suppressor activity of lysyl oxidase, and, therefore, that diminished lysyl oxidase activity promotes the transformed phenotype. […] The lack of effect of BAPN on lysyl oxidase-dependent phenotype control is interesting. […] Given that BAPN is an irreversible inhibitor of lysyl oxidase (Tang et al., 1983), it follows that both extracellular and intracellular lysyl oxidase activity are susceptible to inhibition by BAPN.

RS485 cells [3] = experiment: Cell cycle analysis (FACS, propidium iodide) of RS485 cells treated with suramin; type: cell-based; conditions: 2 days
Experimental: We next determined the effects of suramin on cell cycle progression of RS485 cell cultures. […] The proportions of cells in G1 and S phases in cultures treated with 150 μM suramin are nearly identical to untreated phenotypically normal NIH 3T3 cells (Table I). Thus, treatment with 150 μM suramin changed the morphology, cell cycle, and growth rate of RS485 cells resulting in a more normal phenotype.
(§3) Cell cycle analysis. RS485, NIH 3T3 and PR4 cells were plated on 100 mm plates and were grown until confluent with 0 or 150 μM suramin. Cells (1.5−2×10^6) were then trypsinized, washed with PBS and fixed by washing with ice-cold 70% ethanol. Cells were stained with propidium iodide (50 μg/ml) in PBS containing 2% FBS and was analyzed by flow cytometry using a FACScan flow cytometry with CELLQUEST acquisition and analysis software (Becton Dickinson Co, Bedford, Mass.).
RS485 cells were grown in the presence of 0, 100, or 150 μM suramin for 2 days. Alternatively, NIH 3T3 cells were grown in the absence of suramin, as control. Cells (1.5−2×10^6) were fixed with 70% ethanol and stained with propidium iodide and analyzed by flow cytometry. Data shown are the averages ±SD of experiments performed three times.

[4] = test system: transfected RS485 cell clones; experiment: Cell cycle analysis of anti-sense lysyl oxidase and empty vector transfected RS485 cell clones; type: cell-based; conditions: 150 μM suramin, 24 hours
Experimental: Inhibition of lysyl oxidase expression reduces phenotypic reversion induced by suramin. […] To determine that the suramin-induced phenotypic changes depend upon lysyl oxidase expression, we generated stable anti-sense lysyl oxidase transfected RS485 cell clones. Nine anti-sense lysyl oxidase transfected clones and six empty vector transfected clones were generated and grown in the presence and absence of 150 μM suramin, and after 24 hours, cells were fixed and subjected to cell cycle analysis. Non-transfected RS485 cells were analyzed as an additional control. Differences in the percentage of cells in G1 and S phase occurred as a function of suramin treatment.
as §3
Stable transfection of RS485 cells with an anti-sense lysyl oxidase expression vector. Cells were grown in 100 mm cell culture dishes. At approximately 70% confluence, they were transfected with the anti-sense murine lysyl oxidase expression vector pCLO3 (Giampuzzi et al., 2001) (20 μg DNA/plate) using the calcium phosphate precipitation method (Graham et al., 1973). As a control, RS485 cells were transfected with empty vector (pcDNA3). The transfected cells were selected using G418 (geneticin) at a final concentration of 400 μg/ml in the medium. Colonies were isolated from anti-sense lysyl oxidase and empty vector transfected RS485 cells using cloning cylinders (Southern et al., 1982) and cultured in 400 μg/ml G418. Cells were then plated onto 100 mm plates (250,000 cells/plate) without G418 and treated with 0 or 150 μM suramin. After 24 hours, cells were prepared for cell cycle and Northern analysis as described above.

lysyl oxidase mRNA = experiment: Northern blot analysis of lysyl oxidase mRNA in transfected RS485 clones; type: cell-based, mouse; conditions: 150 μM suramin, 24 hours, normalized to 18S rRNA
Experimental: To confirm that lysyl oxidase expression is actually diminished by anti-sense lysyl oxidase transfection, the ability of 150 μM suramin to induce low steady state mRNA levels of lysyl oxidase in clones was assessed after 24 hours of treatment by Northern blot analysis with normalization to 18S rRNA signals. Suramin treatment led to an average 8-fold increase in lysyl oxidase mRNA levels in the six empty vector-transfected clones assayed, consistent with previous studies on non-transfected RS485 cells (Palamakumbura et al., 2003). In contrast, an average 1.8-fold increase in lysyl oxidase mRNA levels occurred in the nine anti-sense lysyl oxidase transfected clones, as shown by Northern blot analysis. Thus, the induction of steady state lysyl oxidase mRNA levels by suramin is inhibited by the anti-sense lysyl oxidase transfection, as expected.
RNA isolation and Northern blot analysis. Total RNA was isolated using the RNeasy —RNA isolation kit (Qiagen, Valencia, Calif.). Ten μg samples of denatured RNA were electrophoresed on a 1% agarose gel containing […]. Gels were transferred in 10×SSC by capillary blotting overnight to Gene Screen nylon membranes (Perkin Elmer Life Science, Boston, Mass.). […] Autoradiograms were assessed and normalized by densitometric scanning on a Versa Doc Model 3000 Gel Documentation System and Quantity One Software (BioRad, Hercules, Calif.). […]

lysyl oxidase activity = conditions: previously shown (Palamakumbura et al., 2003); cited from earlier work
[5] = anti-sense lysyl oxidase transfected clones
[6] = empty vector transfected clones

Question: For `N#CCCN` [BAPN, β-aminopropionitrile], which “effect on suramin-mediated inhibition of RS485 cell growth” value (RS485 cells [1]; 150 μM suramin and 400 μM BAPN combined) is on record?
Answer: The value was “did not reverse or affect in any detectable way”.

Question: What about the “effect on growth rate of RS485 cells” value (RS485 cells [1]; 400 μM BAPN) of the same molecule?
Answer: Its value is “had no effect on the growth rate”.

Question: What about the “effect on growth rate of PR4 cells” value (PR4 cells) of the same molecule?
Answer: The value was “did not affect the growth rate”.

Question: What about the “effect on morphology of PR4 cells” value (PR4 cells) of the same molecule?
Answer: Its value is “did not change the morphology”.

Question: And the “lysyl oxidase enzyme activity in medium” value (lysyl oxidase; PR4 cultures in continuous presence of 200 μM BAPN)?
Answer: Its value is “no lysyl oxidase enzyme activity was detected”.

Question: And the “lysyl oxidase enzyme activity in medium” value (lysyl oxidase; PR4 cultures in continuous presence of 400 μM BAPN)?
Answer: Its value is “no lysyl oxidase enzyme activity was detected”.

Question: What about the “effect on ability of ectopic lysyl oxidase expression to prevent growth in soft agar” value [2] of the same molecule?
Answer: The value was “failed to block”.

Question: Which “decrease of growth rate” value (RS485 cells [1]; 100 μM suramin) does the source give for `Cc1ccc(C(=O)Nc2ccc(S(=O)(=O)O)c3cc(S(=O)(=O)O)cc(S(=O)(=O)O)c23)cc1NC(=O)c1cccc(NC(=O)Nc2cccc(C(=O)Nc3cc(C(=O)Nc4ccc(S(=O)(=O)O)c5cc(S(=O)(=O)O)cc(S(=O)(=O)O)c45)ccc3C)c2)c1` [suramin] here?
Answer: The value was 38%.

Question: What about the “decrease of growth rate” value (RS485 cells [1]; 125 μM suramin) of the same molecule?
Answer: Its value is 49%.

Question: What about the “morphology of RS485 cells” value (RS485 cells [1]; 150 μM suramin) of the same molecule?
Answer: The value was “flatter and contact inhibited”.

Question: And the “effect on growth rate of RS485 cells” value (RS485 cells [1]; 150 μM suramin (BAPN experiment))?
Answer: Its value is “decreased the growth rate”.

Question: And the “decrease of growth rate” value (RS485 cells [1]; 150 μM suramin)?
Answer: The value was 56%.

Question: And the G1 % (RS485 cells [3]; 100 μM suramin)?
Answer: The G1 % was 59.4 ± 1.3%.

Question: And the “G2, M %” value (RS485 cells [3]; 100 μM suramin)?
Answer: The value was 19.1 ± 7.9%.

Question: What about the S % (RS485 cells [3]; 100 μM suramin) of the same molecule?
Answer: The S % was 21.5 ± 2.4%.

Question: What about the G1 % (RS485 cells [3]; 150 μM suramin) of the same molecule?
Answer: The G1 % was 67.4 ± 0.2%.

Question: And the “G2, M %” value (RS485 cells [3]; 150 μM suramin)?
Answer: Its value is 13.6 ± 1.9%.

Question: And the S % (RS485 cells [3]; 150 μM suramin)?
Answer: The S % was 19.0 ± 1.7%.

Question: What about the “decrease in S phase” value [4, 5] of the same molecule?
Answer: Its value is 6.9%.

Question: What about the “increase in percentage of cells in G1 phase” value [4, 5] of the same molecule?
Answer: Its value is 10.6%.

Question: And the “decrease of average number of cells in S phase” value [4, 6]?
Answer: The value was 13.5%.

Question: What about the “increase of average number of cells in G1” value [4, 6] of the same molecule?
Answer: The value was 20.8%.

Question: What about the “average increase in lysyl oxidase mRNA levels” value (lysyl oxidase mRNA; nine anti-sense lysyl oxidase transfected clones) of the same molecule?
Answer: The value was 1.8 fold.

Question: What about the “average increase in lysyl oxidase mRNA levels” value (lysyl oxidase mRNA; six empty vector-transfected clones) of the same molecule?
Answer: Its value is 8 fold.

Question: And the “induction of lysyl oxidase activity” value (lysyl oxidase activity)?
Answer: The value was “about 2.5 fold”.
